From patent publication US20060070135A1, “Compositions and methods for inhibiting the enzymatic activity of PTP-1B” (priority 1998, published 2006)

Experiments:
[1] = test system: phosphorylation level of the insulin receptor in CHO-IR cells (endogenous PTP-1B); experiment: Intact cell assay: insulin receptor phosphorylation level in CHO-IR cells treated with PTP-1B inhibitors and stimulated with insulin; assay type: cell-based, Chinese hamster; settings: 5 nM insulin; for Intact cell assay: fold-increase over control / fold induction at 50 µM: at 50 μM
Experimental: The phosphorylation level of the insulin receptor (IR) was determined in CHO-IR cells (Chinese hamster ovarian cells expressing endogenous PTP-1B and overexpressing human insulin receptor; ATCC, Manassas, Va.) treated with PTP-1B inhibitors and stimulated with 5 nM insulin. CHO-IR cells were grown in F12 media, 10% fetal bovine serum (FBS), and 1% penstrep. All experiments were conducted within the first 12 passages after thawing cells.
On the first day of the experiment, CHO-IR cells were placed in 6-well plates (1/10 of 100 mm confluent plate). Once cells were confluent (˜24 hours later), the cells were starved overnight in 0% fetal bovine serum F12 medium. After the overnight incubation, the medium was changed to fresh 0% F12 30 minutes prior to the addition of inhibitor. A 1 mL aliquote of media containing inhibitor (10, 25 or 50 μM), with a final concentration of 0.1% DMSO, was added to each well. The inhibitors were added directly to the serum-free media, shortly before using them (i.e., the inhibitor was added to cells within 10 minutes of dilution). Cells were incubated with inhibitors for 2-4 hours. A 250 μL aliquote of insulin (human insulin, HUMULIN™ was subsequently added to each well at a final concentration of 5 nM. The cells were incubated for an additional 10 minutes and washed 2× with cold phosphate-buffered saline (PBS). Proteins were isolated with modified RIPA buffer (200 μL/well) containing protease inhibitor (COMPLETE™), NaF, and Na3VO4.
Protein quantification was conducted using Bradford reagent (BIO-RAD, Hercules, Calif.). Proteins were separated in an 8% SDS-PAGE gel with 25-40 μg protein per well. The proteins were subsequently transferred to PDVF membrane for western blot analysis. Membranes were blocked for 1 hour in either 1% bovine serum albumin for the 4G10 antibody or 5% milk for other antibodies. Membranes were incubated overnight at 4° C. with 4G10 or phospho-antibody, washed 4×5 minutes to remove the primary antibody, incubated 1 hour with secondary antibody, washed an additional 4×5 minutes, and visualized using an ECL detection kit.
Membranes were subsequently stripped, blocked for 1 hour and probed with anti-P-IR, anti-IR, anti-p-AKT, and anti-AKT primary antibodies. Primary antibodies were anti-IR pY1162pY1163 (human) polyclonal antibody and anti-1-IR polyclonal antibody. The blots were washed 4×5 minutes to remove primary antibody, incubated 1 hour in anti-rabbit HRP secondary antibody, washed an additional 4×5 minutes and visualized using ECL.
Bands visualized on the blots were quantified using NIH Image 1.62. Quantification was conducted for at least three experiments.

[2] = biological target: Insulin receptor (mouse, endogenous; β-subunit immunoprecipitated from tissue membrane fractions) (mouse) (UniProt P15208); experiment: cell-based or functional assay
Chain of UniProt P15208 (P15208 753-1372 limits assumed): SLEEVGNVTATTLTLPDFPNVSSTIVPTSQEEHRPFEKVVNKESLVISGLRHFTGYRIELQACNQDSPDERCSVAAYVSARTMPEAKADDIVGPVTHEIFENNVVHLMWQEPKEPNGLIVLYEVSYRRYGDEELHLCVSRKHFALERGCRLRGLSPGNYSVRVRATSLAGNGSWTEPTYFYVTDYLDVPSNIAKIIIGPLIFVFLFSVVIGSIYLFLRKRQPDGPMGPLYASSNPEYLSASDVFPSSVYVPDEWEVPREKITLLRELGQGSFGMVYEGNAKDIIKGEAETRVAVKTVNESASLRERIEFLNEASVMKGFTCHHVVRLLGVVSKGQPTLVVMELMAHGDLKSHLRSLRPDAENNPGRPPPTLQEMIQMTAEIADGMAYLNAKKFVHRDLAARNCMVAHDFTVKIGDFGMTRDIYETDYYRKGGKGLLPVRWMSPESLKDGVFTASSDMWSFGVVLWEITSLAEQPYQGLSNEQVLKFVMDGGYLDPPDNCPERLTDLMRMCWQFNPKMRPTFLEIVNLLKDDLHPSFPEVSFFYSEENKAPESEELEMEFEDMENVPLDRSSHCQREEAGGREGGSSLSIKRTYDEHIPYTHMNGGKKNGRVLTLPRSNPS

[3] = Cricetulus griseus, read-out: Intact cell assay: fold-increase over control

| Compound | Intact cell assay: fold-increase over control [1] | other results |
| --- | --- | --- |
| Nc1nnnn1/N=C/c1cc(I)cc(I)c1O [compound 19, 2-[(5-aminotetrazol-1-ylimino)-methyl]-4,6-diiodophenol] | Inactive at 50 μM |  |
| O=C1C=CC(=O)c2c(O)cccc21 [compound 21, 5-hydroxy-[1,4]-naphthoquinone] |  | fold induction at 50 µM [1, 3]: 0.87 |
| Protein tyrosine phosphatase-1B (mouse, endogenous) (from UniProt P35821 1-432) (enzyme) |  | insulin receptor phosphorylation level in muscle after insulin challenge, PTP-1B (+/-) against wild-type mice on high fat, high carbohydrate diet [2]: 2 fold; insulin receptor phosphorylation level in muscle after insulin challenge, PTP-1B (-/-) against wild-type mice on high fat, high carbohydrate diet [2]: 4 fold; phosphotyrosine level of the insulin receptor in muscle of insulin treated PTP-1B null mice compared to wild-type (immunoprecipitation, anti-phosphotyrosine immunoblot, densitometry) [2]: 40% |
| COc1cc(/C=C2/SC(=S)N(c3cccc(Cl)c3)C2=O)cc([N+](=O)[O-])c1O [compound 22, 3-(3-chlorophenyl)-5-(4-hydroxy-3-methoxy-5-nitrobenzylidene)-2-thioxothiazolidin-4-one] |  | fold induction at 25 µM ([1]; Cricetulus griseus, at 25 μM, read-out: Intact cell assay: fold-increase over control): 2.7; fold induction at 50 µM [1, 3]: 4.1 |
| O=[N+]([O-])c1ccc(O)c(/C=N/N=c2/[nH]c3nonc3nc2Nc2ccc(I)cc2)c1 [compound 20, 2-{[6-(4-iodophenylamino)-4H-[1,2,5]oxadiazolo[3,4-b]pyrazin-5-ylidene]-hydrazonomethyl}-4-nitrophenol] | Inactive at 50 μM |  |
| N#CC(C#N)=C1CSc2sc(=S)sc2SC1 [compound 13, 2-(2-thioxo-[1,3]dithiolo[4,5-b][1,4]dithiepin-6-ylidene)malononitrile] | Inactive at 50 μM |  |
| Protein tyrosine phosphatase-1B (mouse, endogenous) (from UniProt P35821 1-432) |  | insulin receptor tyrosine phosphorylation in liver of wild-type mice, 5 minutes against 1 minute after insulin injection [2]: 50% |
| O=C(O)c1ccc(N2C(=O)/C(=C/c3ccc(-c4ccc([N+](=O)[O-])cc4)o3)C=C2c2ccccc2)cc1 [compound 17, 4-{3-[5-(4-nitrophenyl)-furan-2-ylmethylene]-2-oxo-5-phenyl-2,3-dihydropyrrol-1-yl}-benzoic acid] | Inactive at 50 μM |  |
| Nc1c(S(=O)(=O)O)cc(S(=O)(=O)O)c2cccc(O)c12 [compound 11, 4-amino-5-hydroxynaphthalene-1,3-disulfonic acid] | Inactive at 50 μM |  |
| O=C(/C=C/c1ccco1)Nc1ccc(C(=O)O)cc1NC(=O)/C=C/c1ccco1 [compound 16, 3,4-bis-(3-furan-2-ylacryloylamino)-benzoic acid] | Inactive at 50 μM |  |
| COc1ccc(-c2csc(N3N=C(c4ccc([N+](=O)[O-])cc4)C(=NNc4ccc(S(N)(=O)=O)cc4)C3=O)n2)cc1 [compound 15, 4-{N′-[1-[4-(4-methoxyphenyl)-thiazol-2-yl]-3-(4-nitrophenyl)-5-oxo-1,5-dihydropyrazol-4-ylidene]-hydrazino}-benzenesulfonamide] | Inactive at 50 μM |  |
| CCc1nnc(NS(=O)(=O)c2ccc(NC(=S)NC(=O)/C=C/c3ccc(C(C)C)cc3)cc2)s1 [compound 14, N-(5-ethyl-[1,3,4]thiadiazol-2-yl)-4-{3-[3-(4-isopropylphenyl)-acryloyl]-thioureido}-benzenesulfonamide] | Inactive at 50 μM |  |
